Results: PMC12394750, “2H-1,4-Benzoxazin-3(4H)-one linked 1,2,3-triazole derivatives and their study on inducing DNA damage in tumor cells” (Frontiers in Pharmacology, 2025)

Key:
Huh-7 cells [1] = test: Calcein AM/PI live/dead viability assay; assay type: cell-based, human; conditions: Huh-7, 10, 20 or 30 μM, 24 h
Procedure: To evaluate the anti-proliferative effects of 2H-1,4-benzoxazin-3(4H)-one linked 1,2,3-triazole derivatives, live/dead cell staining was performed using Calcein AM and PI on Huh-7 cells. The cells were treated with different concentrations (10 μM, 20 μM, or 30 μM) of compounds c5, c14, c16, and c18 for 24 h. Living cells were stained green by Calcein AM, while dead cells were stained red by PI.
FIGURE 4 Compounds c5, c14, c16, and c18 increased dead cells and decreased living cells. (A–D) Huh-7 cells were treated with different concentrations of compounds c5, c14, c16, and c18 (10 μM, 20 μM, or 30 μM) for 24 h. Living and dead cells were stained with Calcein AM and PI, respectively, and then observed by confocal microscopy. Data were presented as means ± SEM; *P < 0.05.
A live and dead viability assay was performed using the Calcein/PI Live/Dead Viability Assay Kit. Cells were plated at a density of 2 × 10^3 cells per well in a 96-well plate to adhere overnight. Then, compounds were added with different concentrations for 24 h. The medium was replaced with cell culture medium containing Calcein AM and propidium iodide for 30 min at 37 °C in the dark. Cells were then observed and photographed by confocal microscopy.

[2] = CCK-8 cell viability, L02; assay type: cell-based; conditions: human, L02 normal liver cells
[3] = system: Huh-7 (hepatocellular carcinoma); test: CCK-8 cell viability / IC50, Huh-7; assay type: cell-based, human; conditions: Homo sapiens, Huh-7, 72 h; for viability at 50 µM: CCK-8; for IC50: CCK-8 dose-response
Procedure: To assess the cytotoxic potential of the newly synthesized compounds c1–c20, a panel of human tumor cell lines—including Huh-7 (hepatocellular carcinoma), MCF-7 (breast cancer), and A549 (lung cancer)—was treated with each compound at a concentration of 50 μM for 72 h. Cell viability and cytotoxicity were evaluated using the CCK-8 assay.
Cells were cultured in DMEM or RPMI 1640 medium with 10% FBS and 1% penicillin/streptomycin at 37 °C and 5% CO2. A CCK-8 assay was performed with several human cancer cell lines, including A549, Huh-7, MCF-7, HCT-116, and SKOV3, according to the instructions. Cells were plated at a density of 1,000–3,000 cells per well in a 96-well plate. After 24-h incubation, cells were treated with 40 μM compounds for 48 h or 50 μM compounds for 72 h. Cell viability was measured by adding 10 μL per well of CCK-8 reagent, which was dissolved in the cell culture medium, for 1 hour. Absorbance was taken at 450 nm using a microplate reader. The IC50 values of the compounds were further determined. Cells were seeded in a 96-well plate at a density of 1 × 10^3 cells/well. After adhering overnight, cells treated with […] concentrations (10 μM, 20 μM, 40 µM, or 80 μM) were used to draw the dose–response curve, and IC50 values were calculated by GraphPad Prism software. The CCK-8 assay was performed in triplicate, and each experiment was repeated at least three times. The results were expressed as mean ± SEM, and P < 0.05 was considered statistically significant.

Huh-7 cells [4] = test: Annexin V-FITC/PI apoptosis flow cytometry; assay type: cell-based, human; conditions: Huh-7, 10, 20 or 30 μM, 72 h
Procedure: Apoptosis, a programmed form of cell death, was investigated to understand the molecular mechanisms behind the anti-proliferative effects of the novel compounds. Huh-7 cells were treated with various concentrations (10 μM, 20 μM, or 30 μM) of compounds c5, c14, c16, and c18 for 72 h. The cells were then stained with Annexin V-FITC and propidium iodide (PI) and analyzed by flow cytometry to determine the proportion of apoptotic cells.
Cells were plated at a density of 3 × 10^5 cells per well in a 6-well plate. Different concentrations of compounds were added to cells for 72 h. Then, cells were collected and washed with PBS. Annexin V-FITC and propidium iodide were then added to stained cells for 20 min. Apoptotic cells were quantified by a flow cytometer, and raw data were further analyzed by Flow Jo software v10. Values were expressed as mean ± SEM. Statistical significance was assessed using one-way ANOVA followed by the Student–Newman–Keuls test. P < 0.05 was considered statistically significant. Data were visualized using GraphPad Prism.

Huh-7 cells [5] = test: Autophagy staining assay (MDC probe); assay type: cell-based, human; conditions: Huh-7, 10, 20 or 30 μM, 24 h; especially at doses lower than 30 μM
Procedure: To further evaluate the role of 2H-1,4-benzoxazin-3(4H)-one linked 1,2,3-triazole derivatives in regulating autophagy, Huh-7 cells were treated with different doses (10 μM, 20 μM, or 30 μM) of compounds c5, c14, c16, and c18 for 24 h, and the autophagosome was detected by the MDC (monodansylcadaverine) probe. MDC could specifically label autophagosomes, which will show as green, and we can directly observe them using a fluorescence microscope.
FIGURE 8 Compounds c5, c14, c16, and c18 affected autophagy. Autophagy staining in Huh-7 cells treated with compounds c5, c14, c16, and c18 (10 μM, 20 μM, or 30 μM).
Huh-7 cells were seeded in a 96-well plate at a density of 2 × 10^3 cells/well. Cells were treated with compounds at the doses of 0 μM, 5 μM, 10 μM, 20 μM, or 30 μM. After 24 h of treatment, the medium was removed, and cells were stained with monodansylcadaverine for 1 h in the dark at 37 °C. The cells were photographed with confocal microscopy.

Huh-7 cells [6] = test: DNA damage staining (γ-H2AX); assay type: cell-based, human; conditions: Huh-7, 10, 20 or 30 μM, 24 h
Procedure: In order to further verify the effects of 2H-1,4-benzoxazin-3(4H)-one linked 1,2,3-triazole derivatives on DNA damage, Huh-7 cells were treated with different concentrations (10 μM, 20 μM, or 30 μM) of compounds c5, c14, c16, and c18. After 24 h of treatment, cells were detected with the DNA damage assay kit and observed under a fluorescence microscope.
FIGURE 7 Compounds c5, c14, c16, and c18 affected DNA damage. (A–D) DNA damage detection shown by γ-H2AX staining in Huh-7 cells treated with compounds c5, c14, c16, and c18 (10 μM, 20 μM, or 30 μM).
Huh-7 cells with a density of 2 × 10^3 cells/well were seeded in 96-well plates. Different doses (0 μM, 5 μM, 10 μM, 20 μM, or 30 μM) of the compounds were added to cells for 24 h. A DNA Damage Detection Kit was used to dye the cells. The cell nucleus was stained blue, and DNA-damaged cells were stained green. The cells were observed and photographed by a fluorescent microscope.

IC50 [3] | Structure (SMILES) | Dead cells (PI) in live/dead staining (Huh-7 cells [1]) | viability at 72 h, 50 µM [2] | viability at 50 µM [3] | Apoptosis (proportion of apoptotic cells) (Huh-7 cells [4]) | Autophagosomes (MDC probe) (Huh-7 cells [5]) | DNA damage (γ-H2AX staining) (Huh-7 cells [6])
28.5 ± 0.29 µM | O=C1COc2cc(NC(=O)c3cccc(-c4cn(Cc5ccc(Br)cc5)nn4)c3)ccc2N1 [compound c5, 3-(1-(4-bromobenzyl)-1H-1,2,3-triazol-4-yl)-N-(3-oxo-3,4-dihydro-2H-benzo[b][1,4]oxazin-7-yl)benzamide] | dose-dependent increase | 101 ± 3.35% | 15.1 ± 0.43% | significant, dose-dependent increases | increased | significantly induce cell DNA damage
32.6 ± 1.23 µM | O=C1COc2cc(NC(=O)c3cccc(-c4cn(Cc5cccc(F)c5)nn4)c3)ccc2N1 [compound c14, 3-(1-(3-fluorobenzyl)-1H-1,2,3-triazol-4-yl)-N-(3-oxo-3,4-dihydro-2H-benzo[b][1,4]oxazin-7-yl)benzamide] | dose-dependent increase | 116 ± 1.18% | 18.1 ± 0.76% | significant, dose-dependent increases | increased | significantly induce cell DNA damage
31.87 ± 0.04 µM | O=C1COc2cc(NC(=O)c3cccc(-c4cn(Cc5ccc(C(F)(F)F)cc5)nn4)c3)ccc2N1 [compound c16, N-(3-oxo-3,4-dihydro-2H-benzo[b][1,4]oxazin-7-yl)-3-(1-(4-(trifluoromethyl)benzyl)-1H-1,2,3-triazol-4-yl)benzamide] | dose-dependent increase | 117 ± 1.41% | 17.7 ± 1.27% | significant, dose-dependent increases | increased | significantly induce cell DNA damage

Structure (SMILES) | IC50 [3] | Dead cells (PI) in live/dead staining (Huh-7 cells [1]) | viability at 72 h, 50 µM [2] | viability at 50 µM [3] | Apoptosis (proportion of apoptotic cells) (Huh-7 cells [4]) | Autophagosomes (MDC probe) (Huh-7 cells [5]) | DNA damage (γ-H2AX staining) (Huh-7 cells [6])
O=C1COc2cc(NC(=O)c3cccc(-c4cn(Cc5ccc(Cl)cc5)nn4)c3)ccc2N1 [compound c18, 3-(1-(4-chlorobenzyl)-1H-1,2,3-triazol-4-yl)-N-(3-oxo-3,4-dihydro-2H-benzo[b][1,4]oxazin-7-yl)benzamide] | 19.05 ± 0.12 µM | dose-dependent increase | 117 ± 1.27% | 17.1 ± 0.43% | significant, dose-dependent increases | increased | significantly induce cell DNA damage
